Source: patent US20110086759A1, “CHEMICAL COMPOUNDS” (SYNGENTA CROP PROTECTION, INC., priority 2007, published 2011)

What was measured:
Type in all cases: in vivo
[1] = system: Amaranthus retoflexus (AMARE); assay: Post-emergence biological efficacy, glasshouse pot test; conditions: Amaranthus retroflexus, 312 h; post-emergence, 1,000 g/ha, evaluated after 13 days (100=total damage; 0=no damage); read-out: Percentage damage caused to weed species, AMARE
Protocol: (§1) Seeds of Alopecurus myosuroides (ALOMY), Setaria faberi (SETFA), Echinochloa crus-galli (ECHCG), Solanum nigrum (SOLNI), Amaranthus retoflexus (AMARE) and Ipomea hederaceae (IPOHE) were sown in standard soil in pots. After cultivation for 8 days under controlled conditions in a glasshouse (at 24/16° C., day/night; 14 hours light; 65% humidity), the plants were sprayed with an aqueous spray solution derived from the formulation of the technical active ingredient in acetone/water (50:50) solution containing 0.5% Tween 20 (polyoxyethelyene sorbitan monolaurate, CAS RN 9005-64-5) to give a final dose of 1000 or 250 g/ha of test compound.
(§2) The test plants were then grown on under controlled conditions in a glasshouse (at 24/16° C., day/night; 14 hours light; 65% humidity) and watered twice daily. After 13 days the test was evaluated (100=total damage to plant; 0=no damage to plant).

[2] = system: Alopecurus myosuroides (ALOMY); assay: as above; conditions: 312 h, post-emergence, 1,000 g/ha, evaluated after 13 days (100=total damage; 0=no damage), read-out: Percentage damage caused to weed species, ALOMY
Protocol: as §1, §2

Solanum nigrum (SOLNI) [3] = assay: as above; conditions: 312 h, post-emergence, 1,000 g/ha, evaluated after 13 days (100=total damage; 0=no damage), read-out: Percentage damage caused to weed species, SOLNI
Protocol: as §1, §2

Setaria faberi (SETFA) [4] = assay: as above; conditions: 312 h, post-emergence, 1,000 g/ha, evaluated after 13 days (100=total damage; 0=no damage), read-out: Percentage damage caused to weed species, SETFA
Protocol: as §1, §2

[5] = system: Ipomea hederaceae (IPOHE); assay: as above; conditions: Ipomoea hederacea, 312 h; post-emergence, 1,000 g/ha, evaluated after 13 days (100=total damage; 0=no damage); read-out: Percentage damage caused to weed species, IPOHE
Protocol: as §1, §2

[6] = system: Echinochloa crus-galli (ECHCG); assay: as above; conditions: 312 h, post-emergence, 1,000 g/ha, evaluated after 13 days (100=total damage; 0=no damage), read-out: Percentage damage caused to weed species, ECHCG
Protocol: as §1, §2

[7] = system: Amaranthus retoflexus (AMARE); assay: Pre-emergence biological efficacy, glasshouse pot test; conditions: Amaranthus retroflexus, 312 h; pre-emergence, 1,000 g/ha, evaluated after 13 days (100=total damage; 0=no damage); read-out: Percentage damage AMARE
Protocol: as §1, with “one day” for “8 days”
(§3) The test plants were then grown under controlled conditions in the glasshouse (at 24/16° C., day/night; 14 hours light; 65% humidity) and watered twice daily. After 13 days the test was evaluated (100=total damage to plant; 0=no damage to plant).

[8] = system: Alopecurus myosuroides (ALOMY); assay: as above; conditions: 312 h, pre-emergence, 1,000 g/ha, evaluated after 13 days (100=total damage; 0=no damage), read-out: Percentage damage ALOMY
Protocol: as §1, with “one day” for “8 days”
as §3

Solanum nigrum (SOLNI) [9] = assay: as above; conditions: 312 h, pre-emergence, 1,000 g/ha, evaluated after 13 days (100=total damage; 0=no damage), read-out: Percentage damage SOLNI
Protocol: as §1, with “one day” for “8 days”
as §3

Setaria faberi (SETFA) [10] = assay: as above; conditions: 312 h, pre-emergence, 1,000 g/ha, evaluated after 13 days (100=total damage; 0=no damage), read-out: Percentage damage SETFA
Protocol: as §1, with “one day” for “8 days”
as §3

[11] = system: Ipomea hederaceae (IPOHE); assay: as above; conditions: Ipomoea hederacea, 312 h; pre-emergence, 1,000 g/ha, evaluated after 13 days (100=total damage; 0=no damage); read-out: Percentage damage IPOHE
Protocol: as §1, with “one day” for “8 days”
as §3

[12] = system: Echinochloa crus-galli (ECHCG); assay: as above; conditions: 312 h, pre-emergence, 1,000 g/ha, evaluated after 13 days (100=total damage; 0=no damage), read-out: Percentage damage ECHCG
Protocol: as §1, with “one day” for “8 days”
as §3

Row | Compound | pest or weed control at 1000 g/ha [1] | pest or weed control at 1000 g/ha [2] | pest or weed control at 1000 g/ha (Solanum nigrum (SOLNI) [3]) | pest or weed control at 1000 g/ha (Setaria faberi (SETFA) [4]) | pest or weed control at 1000 g/ha [5] | pest or weed control at 1000 g/ha [6] | pest or weed control at 1000 g/ha [7] | pest or weed control at 1000 g/ha [8] | pest or weed control at 1000 g/ha (Solanum nigrum (SOLNI) [9]) | pest or weed control at 1000 g/ha (Setaria faberi (SETFA) [10]) | pest or weed control at 1000 g/ha [11] | pest or weed control at 1000 g/ha [12]
1 | COC(=O)c1nc(C2CC2)nc(N[C@@H](C)C(=O)OCc2ccccc2)c1Cl [4-272 (S), 5-Chloro-2-cyclopropyl-6-methoxycarbonyl-4-[(1S)-1-(phenylmethoxy-carbonyl)ethylamino]-pyrimidine] | 100% | 20% | 80% | 60% | 60% | 30% | 70% | 10% | 80% | 20% | 70% | 30%
2 | COC(=O)c1nc(C2CC2)nc(N[C@@H](CO)Cc2ccccc2)c1Cl [4-273 (R), 5-Chloro-2-cyclopropyl-4-[(1R)-1-hydroxymethyl-2-phenyl-ethylamino]-6-methoxycarbonyl-pyrimidine] | 100% | 30% | 90% | 60% | 90% | 60% | 80% | 50% | 80% | 70% | 100% | 60%
3 | COC(=O)c1nc(C2CC2)nc(N[C@H](CO)Cc2ccccc2)c1Cl [4-273 (S), 5-Chloro-2-cyclopropyl-4-[(1S)-1-hydroxymethyl-2-phenyl-ethylamino]-6-methoxy-carbonylpyrimidine] | 100% | 50% | 100% | 70% | 90% | 60% | 100% | 40% | 90% | 80% | 90% | 60%
4 | COC(=O)c1nc(C2CC2)nc(N[C@H](CO)[C@H](O)c2ccc([N+](=O)[O-])cc2)c1Cl [4-275 (R,R), 5-Chloro-2-cyclopropyl-4-[(1R, 2R)-2-hydroxy-1-hydroxymethyl-2-(4-nitrophenyl)-ethylamino]-6-methoxycarbonyl-pyrimidine] | 100% | 30% | 100% | 80% | 100% | 70% | 100% | 70% | 90% | 70% | 100% | 60%
5 | COC(=O)c1nc(C2CC2)nc(N[C@@H](CO)[C@@H](O)c2ccc([N+](=O)[O-])cc2)c1Cl [4-275 (S,S), 5-Chloro-2-cyclopropyl-4-[(1S, 2S)-2-hydroxy-1-hydroxymethyl-2-(4-nitrophenyl)-ethylamino]-6-methoxycarbonyl-pyrimidine] | 100% | 40% | 100% | 80% | 70% | 60% | 100% | 30% | 100% | 60% | 100% | 30%
6 | COC(=O)c1nc(C2CC2)nc(N[C@H](CO)CSCc2ccccc2)c1Cl [4-276 (R), 5-Chloro-2-cyclopropyl-4-[(1R)-1-hydroxymethyl-2-phenylmethylthio-ethylamino]-6-methoxycarbonyl-pyrimidine] | 100% | 20% | 80% | 40% | 40% | 30% | 100% | 20% | 90% | 30% | 80% | 30%
7 | COC(=O)c1nc(C2CC2)nc(N[C@H](c2ccccc2)[C@@H](O)c2ccccc2)c1Cl [4-280 (1R,2S), 5-Chloro-2-cyclopropyl-4-[(1R, 2S)-1,2-diphenyl-2-hydroxy-ethyl-amino]-6-methoxy-carbonylpyrimidine] | 100% | 40% | 80% | 70% | 70% | 50% | 60% | 10% | 80% | 10% | 90% | 20%
8 | COC(=O)c1nc(C2CC2)nc(N[C@@H](c2ccccc2)[C@H](O)c2ccccc2)c1Cl [4-280 (1S,2R), 5-Chloro-2-cyclopropyl-4-[(1S, 2R)-1,2-diphenyl-2-hydroxy-ethylamino]-6-methoxycarbonyl-pyrimidine] | 100% | 40% | 100% | 80% | 100% | 60% | 100% | 20% | 90% | 30% | 80% | 40%
9 | COC(=O)c1nc(C2CC2)nc(N[C@@H](CC2CCCCC2)C(=O)OC)c1Cl [4-282 (S), 5-Chloro-4-[(1S)-2-cyclohexyl-1-methoxycarbonyl-ethylamino]-2-cyclopropyl-6-methoxycarbonyl-pyrimidine] | 100% | 20% | 80% | 60% | 80% | 20% | 90% | 10% | 90% | 20% | 80% | 30%
